Where “and” joins values, the source holds several entries; their conditions need not be identical. Equal values may be shown once. Blank lines part the entries; values can stand above or below the molecule they belong to. Non-standard residues stand in square brackets, D forms with d. Residues, ends and D or L forms follow the SMILES beside them. *: point of attachment. X1 = O=C(Cn1cc(CCCF)nn1)NCC1OC(C(=O)*)C(O)C(O)C1O
How the values were obtained:
[1] = biological target: T1, Integrin αvβ3 expressing U87MG cells (Homo sapiens, UniProt P05106+P06756); assay: Cell-based integrin receptor-binding competition assay against fluorescent compound 21; conditions: 10 nM compound 21, 2 hrs, FIG. 4
T1 construct: Integrin αvβ3 expressing U87MG cells; endogenous in cells; host or cells: U87MG
Method: After incubation, cells were washed three times to eliminate unbound cyclic peptides. Fluorescence readings (RLU) were then taken (excitation at 491 nm, emission at 518 nm, cutoff 515 nm). Fluorescence signals of wells without cyclic peptides were set as 100% and used as control. […] All treatments were carried out in triplicates.

[2] = biological target: T2, integrin αvβ3 (Homo sapiens, UniProt P05106+P06756); assay: Binding affinity to integrin αvβ3, summary statements (FIG. 1-4); conditions: general statement
Method: Compound 20 was immobilized onto a CM5 chip (Supplier: Biacore. CM5 is a SPR chip with a carboxymethylated dextran covalently attached to a gold surface) via amine coupling. Intergrin αvβ3 samples at 50 nM concentration, premixed with a wide range of concentrations of RGD test compound (0˜2000 nM), were flowed through the CM5 chip at 14° C.
The interactions between the flowing integrin αvβ3 sample and the surface of the chip were recorded by Biacore sensorgram signals. Flow cell #1 served as blank control and the flow cell #2 were coated with compound 20. After subtraction the blank signal of flow cell #1 from the signal of flow cell #2, the resulting sensorgram signals from each cycle were converted into percentage values and the Kd and IC50 values for each cyclopeptides were calculated.
Inhibitory effects of cyclic peptides were quantified by measuring their effects on the interactions between immobilized integrin and biotinylated soluble ligand. Integrin αvβ3 was immobilized on a 96 well plate. […] The wells were incubated with alkaline-phsphatase substrate and the intensities of yellow color product were measured in plate reader. […]
Integrin αvβ3 expressing U87MG cells were incubated with a series of concentration of cyclic peptides (0.01, 0.1, 1, 10, 100, 1000, 10000 nM) in the presence of 10 nM of green fluorescence labeled compound 21 for 2 hrs. […]

[3] = test system: U87MG human glioblastoma tumor xenograft; type: in vivo, mouse
Method: PET Studies: In vivo microPET imaging of a tumor-bearing mouse is performed on an anesthetized mouse bearing tumor xenograft of U87MG human glioblastoma after administration of the test imaging cyclic peptides. Animals are induced with 5% isoflurane/oxygen until anesthetized and then maintained on 2-2.5% isoflurane/oxygen inhalation for the duration of each PET scanning procedure (up to 2 hours). Anesthetized animals are placed on a heated pad for the duration of each PET scan. Animals are scanned at 1 hour post-injection for 30 min.

[4] = FIG. 5
Method: Table printed on a drawing sheet, FIG. 5
The patent's description of the figure: FIG. 5 is a microPET imaging of Compound 19 in a U87MG xenograft mouse model at 1 hour post-injection.
First reader's note: Tissue uptake from the microPET image beside the table; rows are the right-side (RS) tumor, the left-side (LS) tumor and muscle.

[5] = biological target: T2, integrin αvβ3; conditions: background statement; cited from earlier work
[6] = test system: M21 melanoma xenograft; conditions: integrin-positive M21 melanoma xenograft; cited from earlier work
[7] = test system: A431 human squamous cell carcinoma model; conditions: integrin negative cell line A431; cited from earlier work
[8] = cited from earlier work
[9] = test system: tumor; conditions: in vivo, cited from earlier work
[10] = comparison among cyclic peptides 4, 1 and RGDfK
[11] = comparison of cyclic peptides 18 and 23

- potency (competition of binding) [1, 10]: very similar in potency
Molecule: N=C(N)NCCC[C@@H]1NC(=O)[C@H](CCCCN)NC(=O)[C@@H](Cc2ccccc2)NC(=O)[C@H](CC(=O)O)NC(=O)[C@H](CO)NC1=O [Compound 1] (cyclo(D[dF]KRS))

- potency (competition of binding) [1, 10]: very similar in potency
- binding affinity to integrin αvβ3 [2]: high binding affinity
Molecule: C[C@@H]1NC(=O)[C@H](CCCNC(=N)N)NC(=O)[C@H](CCCCN)NC(=O)[C@@H](Cc2ccccc2)NC(=O)[C@H](CC(=O)O)NC1=O [Compound 4] (cyclo(RAD[dF]K))

Molecule: C[C@@H]1NC(=O)[C@H](CCCNC(=N)N)NC(=O)[C@H](CCCCNC(=O)C2OC(CNC(=O)Cn3cc(CCCF)nn3)C(O)C(O)C2O)NC(=O)[C@@H](Cc2ccccc2)NC(=O)[C@H](CC(=O)O)NC1=O (some centres unmarked) [Compound 18] (cyclo(AD[dF]K(X1)R))
- potency (competition of binding) [1, 11]: very similar in potency
- binding affinity to integrin αvβ3 [2]: high binding affinity

Molecule: C[C@@H]1NC(=O)[C@H](CCCNC(=N)N)NC(=O)[C@H](CCCCNC(=O)C2O[C@H](CNC(=O)Cn3cc(CCC[18F])nn3)[C@H](O)C(O)[C@@H]2O)NC(=O)[C@@H](Cc2ccccc2)NC(=O)[C@H](CC(=O)O)NC1=O (some centres unmarked) [Compound 19]
- tumor uptake and retention ([3]; microPET, 1 hour post-injection, FIG. 5): good tumor uptake and retention
- wash-out rate from muscle and other healthy tissues ([3]; mouse, in vivo): fast wash-out rate
- %ID/g [4]: 0.042 %ID/g and 0.034 %ID/g and 0.025 %ID/g

Molecule: C[C@@H]1NC(=O)[C@H](CCCNC(=N)N)NC(=O)[C@H](CCCCNC(=O)CCN(CCC(=O)NCCCC[C@@H]2NC(=O)[C@@H](Cc3ccccc3)NC(=O)[C@H](CC(=O)O)NC(=O)[C@H](C)NC(=O)[C@H](CCCNC(=N)N)NC2=O)C(=O)CCOCCOCCOCCOCCNC(=O)n2cc(CCCF)nn2)NC(=O)[C@@H](Cc2ccccc2)NC(=O)[C@H](CC(=O)O)NC1=O [Compound 23]
- potency (competition of binding) [1, 11]: very similar in potency

Molecule: CC([18F])C(=O)NC[C@H]1OC(C(=O)NCCCC[C@@H]2NC(=O)[C@@H](Cc3ccccc3)NC(=O)[C@H](CC(=O)O)NC(=O)CNC(=O)[C@H](CCCNC(=N)N)NC2=O)[C@@H](O)C(O)C1O (some centres unmarked) [[^18F]Galacto-RGD]
- integrin binding affinity [5]: relatively low integrin binding affinity
- tumor uptake [6]: integrin αvβ3-specific tumor uptake
- tracer localization [7]: did not localize on tumor cells
- tumor standard uptake values ([8]; background statement): modest tumor standard uptake values
- tracer accumulation in organs ([8]; both preclinical models and human studies): prominent tracer accumulation in the liver, kidneys, spleen, and intestines

Molecule: c(RGDyV)
- tumor uptake ([9]; 125I-labeled peptide): receptor-specific tumor uptake
- excretion [9]: unfavorable hepatobiliary excretion
- tumor washout [9]: rapid tumor washout

From patent US8133472B2, “Cyclopeptides containing RGD mimetics as imaging markers for integrins” (Siemens Medical Solutions USA, Inc., priority 2008, dated 2012)
